Reference: PubChem BioAssay AID2060509 (Molecular Pharmacology Branch, DTP, NCI, 2025)

Test system: 485176-168-R4-J1-PDC spheroids with HUVEC/MSC, viability
Assay: Anticancer human tumor 485176-168-R4-J1-PDC patient-derived pancreatic adenocarcinoma cell line growth inhibition [GQUAD]
Settings: for IC50: curve of first compound; for viability, T/C: stronger effect = lower value; active means viability on the fitted dose curve at most 10% of control; inactive means the rest
Text: DNA G-quadruplex Stabilizer Agents in Combinations in Complex Spheroids
A high-throughput screen of multi-cell type tumor spheroids was designed to identify active combinations of DNA G-quadruplex stabilizer agents and targeted small molecules. Complex spheroids include a stromal component modeled by human endothelial cells (HUVEC) and fibroblasts modeled by human mesenchymal stem cells (MSCs). The concentration ranges selected for each drug and investigational agent were based upon clinically achievable concentrations if the clinical Cmax of the agent was known.
Compounds. The drugs and investigational agents: pidnarulex (CX-5461; NSC782164), APTO-253 (NSC789042), BRACO-19 (NSC847499), peposertib (NSC802822), ceralasertib (NSC780249), elimusertib (NSC800525), camonsertib (NSC841442), AZD-1390 (NSC803789), olaparib (NSC753686), talazoparib (NSC767125), ART-558 (NSC835418), sotorasib (NSC818433), MRTX-1133 (NSC836407), SN-38 (NSC673596), topotecan (NSC609699), etoposide (NSC141540), doxorubicin (NSC123127), gemcitabine (NSC613327), 5-fluorouracil (NSC19893), paclitaxel (NSC125973), vemurafenib (NSC761431), panobinostat (NSC761190), R-306465 (JNJ-16241199; NSC773264), adavosertib (NSC754352), TP-3654 (NSC805149), carboplatin (NSC241240), KSQ-4279 (NSC840948), and staurosporine (NSC755774) were obtained from the National Cancer Institute (NCI) Developmental Therapeutics Program Chemical Repository (34). The FDA-approved anticancer drug set is available from the NCI Developmental Therapeutics Program. […] The stock solutions were prepared in dimethyl sulfoxide (DMSO, Sigma-Aldrich, St. Louis, MO, cat. D2650) at 800-fold the tested concentration and stored at -70 degrees C prior to their use. All drugs and investigational agents were tested over a range starting from a high concentration at or near the clinical Cmax and decreasing in half-log increments. If the clinical Cmax for an agent had not been determined, the highest concentration tested was 10 microM.
2.3 Cell Culture. All cells were maintained in an incubator at 37 degrees C and 5% CO2 with 95% humidity. The PDC lines were cultured according to standard operating procedures established by the NCI PDMR. All PDCs were thawed and cultured in Matrigel-coated flasks prepared with a working solution of 1X Ham's F-12 nutrient mix, without supplementation (Invitrogen, cat. 11765054), 100 U/mL penicillin-streptomycin (Invitrogen, cat. 15140122), and 2.5% Matrigel (Corning Inc., cat. 354248) for the first three passages. The 857933-349-R-J2-PDC line was cultured in 6C/Colon 1B media, which includes advanced DMEM/F-12 (Thermo Fisher Scientific, cat. 12634028), 10 mM HEPES (Thermo Fisher Scientific, cat. 15630080), 1X GlutaMAX supplement (Thermo Fisher Scientific, cat. 35050061), 0.1 mg/mL primocin (InvivoGen, cat. ant-pm-2), 10% defined fetal bovine serum, heat inactivated (HyClone Laboratories Inc., cat. SH30070.03HI), 50% L-WRN conditioned media (ATCC, cat. CRL-3276), 1.25 mM N-Acetyl-L-cysteine (Sigma-Aldrich, cat. A9165), 10 mM nicotinamide (Sigma-Aldrich, cat. N0636), 1X B-27 supplement (Thermo Fisher Scientific, cat. 17504044), 1X N-2 supplement (Thermo Fisher Scientific, cat. 17502048), 10 microM Y-27632 dihydrochloride (Tocris Bioscience, cat. 1254), and 50 ng/mL human EGF recombinant protein (Thermo Fisher Scientific, cat. PHG0311). The 485176-168-R4-J1-PDC line was cultured in Panc media, which includes all 6C/Colon 1B media components plus 100 ng/mL human FGF-10 (Thermo Fisher Scientific, cat. 100-26), 500 nM SB-431542 (Selleckchem, cat. S1067), and gastrin (Tocris, cat. 3006).
[…]

[1] = second compound 0.0316 µM, first compound 0.0316 µM
[2] = second compound 0.0316 µM, first compound 0.316 µM
[3] = second compound 0.1 µM, first compound 0.0316 µM
[4] = second compound 0.1 µM, first compound 0.316 µM
[5] = second compound 0.316 µM, first compound 0.0316 µM
[6] = second compound 0.316 µM, first compound 0.316 µM
[7] = second compound 1 µM, first compound 0.0316 µM
[8] = second compound 1 µM, first compound 0.316 µM
[9] = second compound 3.16 µM, first compound 0.0316 µM
[10] = second compound 3.16 µM, first compound 0.316 µM
[11] = second compound 10 µM, first compound 0.0316 µM
[12] = second compound 10 µM, first compound 0.316 µM
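Further: spheroids exposed to compounds for seven days before readout.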
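Wherever viability, T/C is given: percent viability relative to DMSO vehicle control wells as 100%.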

C=CC(=O)N1CCN(c2nc(=O)n(-c3c(C)ccnc3C(C)C)c3nc(-c4c(O)cccc4F)c(F)cc23)C(C)C1 (centres undefined) + CN(C)c1ccc(Nc2c3ccc(NC(=O)CCN4CCCC4)cc3nc3cc(NC(=O)CCN4CCCC4)ccc23)cc1
inactive: viability, T/C [1] 111% | viability, T/C (second compound 0.0316 µM, first compound 0.1 µM) 90.2% | viability, T/C [2] 102% | viability, T/C (second compound 0.0316 µM, first compound 1 µM) 98.1% | viability, T/C (second compound 0.0316 µM, first compound 3.16 µM) 120% | viability, T/C (second compound 0.0316 µM, first compound 10 µM) 112% | viability, T/C [3] 88.5% | viability, T/C (second compound 0.1 µM, first compound 0.1 µM) 98.3% | viability, T/C [4] 110% | viability, T/C (second compound 0.1 µM, first compound 1 µM) 99.5% | viability, T/C (second compound 0.1 µM, first compound 3.16 µM) 114% | viability, T/C (second compound 0.1 µM, first compound 10 µM) 96.6% | viability, T/C [5] 90.5% | viability, T/C (second compound 0.316 µM, first compound 0.1 µM) 95.7% | viability, T/C [6] 96.2% | viability, T/C (second compound 0.316 µM, first compound 1 µM) 101% | viability, T/C (second compound 0.316 µM, first compound 3.16 µM) 119% | viability, T/C (second compound 0.316 µM, first compound 10 µM) 120% | viability, T/C [7] 128% | viability, T/C (second compound 1 µM, first compound 0.1 µM) 110% | viability, T/C [8] 94.8% | viability, T/C (second compound 1 µM, first compound 1 µM) 108% | viability, T/C (second compound 1 µM, first compound 3.16 µM) 125% | viability, T/C (second compound 1 µM, first compound 10 µM) 98.6% | viability, T/C [9] 108% | viability, T/C (second compound 3.16 µM, first compound 0.1 µM) 95.6% | viability, T/C [10] 90.5% | viability, T/C (second compound 3.16 µM, first compound 1 µM) 107% | viability, T/C (second compound 3.16 µM, first compound 3.16 µM) 114% | viability, T/C (second compound 3.16 µM, first compound 10 µM) 108% | viability, T/C [11] 86.2% | viability, T/C (second compound 10 µM, first compound 0.1 µM) 104% | viability, T/C [12] 86.6% | viability, T/C (second compound 10 µM, first compound 1 µM) 91.1% | viability, T/C (second compound 10 µM, first compound 3.16 µM) 88.2% | viability, T/C (second compound 10 µM, first compound 10 µM) 73.1%
> 10000 nM: IC50 (second compound 0.0316 µM) | IC50 (second compound 0.1 µM) | IC50 (second compound 0.316 µM) | IC50 (second compound 1 µM) | IC50 (second compound 3.16 µM) | IC50 (second compound 10 µM)

CCc1c2c(nc3ccc(O)cc13)-c1cc3c(c(=O)n1C2)COC(=O)[C@]3(O)CC + CN(C)c1ccc(Nc2c3ccc(NC(=O)CCN4CCCC4)cc3nc3cc(NC(=O)CCN4CCCC4)ccc23)cc1
9.31 nM: IC50 (second compound 0.316 µM)
9.32 nM: IC50 (second compound 0.1 µM)
11.2 nM: IC50 (second compound 3.16 µM)
inactive: viability, T/C (second compound 0.0316 µM, first compound 0.000999 µM) 87.7% | viability, T/C (second compound 0.0316 µM, first compound 0.00316 µM) 68.4% | viability, T/C (second compound 0.0316 µM, first compound 0.00999 µM) 38.3% | viability, T/C [1] 28.5% | viability, T/C (second compound 0.0316 µM, first compound 0.0999 µM) 13.5% | viability, T/C (second compound 0.1 µM, first compound 0.000999 µM) 77.8% | viability, T/C (second compound 0.1 µM, first compound 0.00316 µM) 67.9% | viability, T/C (second compound 0.1 µM, first compound 0.00999 µM) 48.1% | viability, T/C [3] 28.6% | viability, T/C (second compound 0.1 µM, first compound 0.0999 µM) 11.2% | viability, T/C (second compound 0.316 µM, first compound 0.000999 µM) 91.1% | viability, T/C (second compound 0.316 µM, first compound 0.00316 µM) 86.8% | viability, T/C (second compound 0.316 µM, first compound 0.00999 µM) 41.8% | viability, T/C [5] 27.6% | viability, T/C (second compound 0.316 µM, first compound 0.0999 µM) 12.9% | viability, T/C [6] 6.92% | viability, T/C (second compound 1 µM, first compound 0.000999 µM) 103% | viability, T/C (second compound 1 µM, first compound 0.00316 µM) 58% | viability, T/C (second compound 1 µM, first compound 0.00999 µM) 50.7% | viability, T/C [7] 28.1% | viability, T/C (second compound 1 µM, first compound 0.0999 µM) 13.8% | viability, T/C (second compound 3.16 µM, first compound 0.000999 µM) 88.8% | viability, T/C (second compound 3.16 µM, first compound 0.00316 µM) 88% | viability, T/C (second compound 3.16 µM, first compound 0.00999 µM) 43.4% | viability, T/C [9] 34.2% | viability, T/C (second compound 3.16 µM, first compound 0.0999 µM) 14.3% | viability, T/C [10] 8.88% | viability, T/C (second compound 10 µM, first compound 0.000999 µM) 80.3% | viability, T/C (second compound 10 µM, first compound 0.00316 µM) 61% | viability, T/C (second compound 10 µM, first compound 0.00999 µM) 45.3% | viability, T/C [11] 34.1% | viability, T/C (second compound 10 µM, first compound 0.0999 µM) 19.3%
7.71 nM: IC50 (second compound 10 µM)
6.98 nM: IC50 (second compound 0.0316 µM)
active: viability, T/C [2] 6% | viability, T/C [4] 5.98% | viability, T/C [8] 6.15% | viability, T/C [12] 8.05%
7.26 nM: IC50 (second compound 1 µM)
